Reference: publication PMC6359144 (International Journal of Molecular Sciences, 2019)
“Also recorded” adds a separate entry of the source.

Tests used:
[1] = test system: DLD-1 colon carcinoma cells; assay: MTT assay, DLD-1 colon carcinoma cells; format: cell-based; settings: Homo sapiens, DLD-1, read-out: IC50 DLD-1 (72 h)
Description: HT-29 (ACC-299), HCT-116 (ACC-581) and DLD-1 (ACC-278) colon carcinoma, MCF-7 (ACC-115) breast carcinoma, KB-V1 (ACC-149), 518A2 (Department of Radiotherapy and Radiobiology, University Hospital Vienna) melanoma and Ea.Hy926 (ATCC no. CRL-2922) HUVEC derived endothelial hybrid cells line were grown in Dulbecco’s Modified Eagle Medium (DMEM; Biochrom), high glucose supplemented with 10% (v/v) fetal bovine serum (FBS; Biochrom.) and 1% (v/v) Antibiotic-Antimycotic solution (anti-anti; Thermo Scientific). HDFa human dermal fibroblasts (ATCC: PCS-201-012™) were grown in DMEM supplemented with 10% FBS, 1% anti-anti and 2 mM glutamine. The cells were incubated at 37 °C, 5% CO2, 95% humidified atmosphere. By repeated addition of topotecan or vinblastine at the maximum tolerated dose to the cell medium of MCF-7 and KB-V1 cells, the cells were rendered multidrug-resistant, indicated as MCF-7^Topo and KB-V1^Vbl, respectively. They were serially passaged following trypsinization by using 0.05% trypsin/0.02% EDTA (Biochrom). Mycoplasma contamination was routinely monitored, and only mycoplasma–free cultures were used.
MTT [3-(4,5-dimethylthiazol-2-yl)-2,5-diphenyltetrazolium bromide] (ABCR) was used to determine the cytotoxicity of test compounds as previously described. Briefly, HDFa human dermal fibroblasts and Ea.Hy926 endothelial hybrid cells (both 1 × 10^5 cells/mL, 100 µL/well), 518A2 melanoma, KB-V1^Vbl cervix carcinoma, MCF-7^Topo breast carcinoma, HT-29, DLD-1 and HCT-116 colon carcinoma (all 5 × 10^4 cells/mL, 100 µL/well) were grown in 96-well culture plates for 24 h. Then, various concentrations of the test compounds were added and the cells were incubated for 24-72 h at 37 °C. After adding 12.5 µL of a 0.5% MTT solution in PBS (final concentration 0.05%) to cell medium, microplates were incubated for 2 h and subsequently swiftly turned to discard the medium. The precipitate of formazan crystals was then dissolved in a 10% solution of SDS in DMSO containing 0.6% acetic acid. To ensure complete dissolution of formazan, microplates were incubated for at least 4 h at 37 °C. Finally, the absorbance at λ = 570 nm (formazan) and 630 nm (background) was measured using a microplate reader (Tecan F200). All experiments were carried out in quadruplicate and the percentage of viable cells was calculated as the mean ± SD with controls set to 100%. Selected graphs of MTT assays can be found in the Supporting Information (Figure S8).

[2] = molecular target: T1, purified pig brain tubulin (Sus scrofa, UniProt P02550+P02554); assay: Turbidimetric cell-free tubulin polymerization assay; format: biochemical; settings: 10 µM, 340 nm
T1 construct: using purified pig brain tubulin; from tissue; host or cells: pig brain
T1 sequence (P02554 whole entry): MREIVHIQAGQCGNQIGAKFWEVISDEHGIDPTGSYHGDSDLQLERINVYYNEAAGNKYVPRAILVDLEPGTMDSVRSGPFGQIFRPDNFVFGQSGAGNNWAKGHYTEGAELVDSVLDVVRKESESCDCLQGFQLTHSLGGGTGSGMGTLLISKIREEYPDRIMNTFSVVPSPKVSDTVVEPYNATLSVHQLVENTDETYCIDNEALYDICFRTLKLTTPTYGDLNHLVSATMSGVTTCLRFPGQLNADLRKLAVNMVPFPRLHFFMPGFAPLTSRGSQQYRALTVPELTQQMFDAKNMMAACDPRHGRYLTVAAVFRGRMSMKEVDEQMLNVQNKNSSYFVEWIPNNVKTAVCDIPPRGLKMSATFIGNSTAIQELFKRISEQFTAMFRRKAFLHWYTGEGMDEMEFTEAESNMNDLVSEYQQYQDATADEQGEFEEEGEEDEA
T1 sequence (P02550 whole entry): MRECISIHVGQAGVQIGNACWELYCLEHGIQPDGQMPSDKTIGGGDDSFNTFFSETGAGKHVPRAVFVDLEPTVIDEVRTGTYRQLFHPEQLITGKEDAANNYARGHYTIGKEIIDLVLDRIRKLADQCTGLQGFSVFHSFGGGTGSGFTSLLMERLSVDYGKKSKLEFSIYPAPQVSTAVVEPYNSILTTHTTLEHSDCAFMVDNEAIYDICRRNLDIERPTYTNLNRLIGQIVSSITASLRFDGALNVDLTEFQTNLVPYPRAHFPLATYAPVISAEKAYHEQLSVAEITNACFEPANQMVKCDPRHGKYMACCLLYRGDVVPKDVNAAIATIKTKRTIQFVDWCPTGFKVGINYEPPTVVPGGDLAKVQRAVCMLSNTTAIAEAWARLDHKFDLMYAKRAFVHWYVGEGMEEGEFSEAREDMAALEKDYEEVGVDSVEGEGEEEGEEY
Description: An amount of 50 µL of Brinkley’s buffer 80 (BRB80) supplemented with 20% glycerol and 3 mM GTP was given in a black 96-well half-area plate with clear bottom. Then, test compounds 4d–f (final concentration: 5 µM, or 10 µM) or vehicle (DMSO) were added. After adding 50 µL tubulin in BRB80 (10 mg/mL) was pipetted in the wells and immediately placed in a pre-heated microplate reader (Tecan). The polymerization was determined turbidimetrically at 37 °C by measuring the absorption at 340 nm for 120 min in intervals of 5 min. Values were normally distributed for each group (Shapiro–Wilk test, p > 0.05) and there was homogeneity of variance (Levene’s test, p > 0.05).

[3] = test system: microtubule cytoskeleton in 518A2 melanoma cells; assay: Immunofluorescence staining of microtubule cytoskeleton, 518A2 cells; format: cell-based, human; settings: 24 h
Description: 518A2 melanoma cells (5 × 10^4 cells/mL, 500 µL/well) or Ea.Hy926 endothelial hybrid cells (7.5 × 10^4 cells/mL, 500 µL/well) were seeded in 24-well plates on small glass coverslips and grown for 24 h. Then, the cells were exposed to the test compounds for 24 h. After washing the cells once with PBS, they were fixed in 3.7% formaldehyde in PBS (20 min, rt), and permeabilized and blocked in 1% BSA and 0.1% triton X-100 in PBS (30 min, rt). Then, the cells were incubated with monoclonal mouse anti-alpha-tubulin antibody (1 h, 37 °C). […] Then, the cells were washed for three times with PBS and once with water. The glass coverslips were mounted in 4-88 based mounting medium supplemented with 1 µg/mL DAPI for counterstaining the nuclei and 2.5% DABCO. Alterations of the microtubule were documented by a Zeiss Imager A1 AX10 fluorescence microscope (400× magnification).

518A2 melanoma cells = assay: Cell cycle analysis by flow cytometry after PI staining; format: cell-based, human; settings: 24 h; for cell cycle arresting effect: 518A2 cells, FACS
Description: The 518A2 melanoma cells (3 mL/well; 5 × 10^4 cells/mL) were grown on 6-well tissue culture plates for 24 h. After treatment with 4d (150, and 200 nM), 4e (0.8, and 1 µM), 4f (2, and 3 µM), or DMSO (control) for another 24 h, cells were fixed (70% EtOH, 24 h, 4 °C), washed with PBS and incubated with propidium iodide (PI; Carl Roth) staining solution (50 µg/mL PI, 0.1% sodium citrate, 50 µg/mL RNase A in PBS) for 30 min at 37 °C. […] The percentages of cells in the different phases of the cell cycle (G1, S and G2/M phase) were determined using the CXP Analysis software (Beckmann Coulter). The percentage of apoptotic cells was derived from sub-G1 peaks. Data was normally distributed for each group (Shapiro–Wilk test, p > 0.05). Since homogeneity of variance (Levene’s test, p < 0.05) was violated, a correction was calculated for Anova (Welch test).

SMILES: COc1ccc(-c2ocnc2-c2cc(Br)c(OC)c(OC)c2)cc1OCCCCCC(=O)NO [4f, N-Hydroxy-6-[1-methoxy-4-(4’-(3’’-bromo-4’’,5’’-dimethoxyphenyl)oxazol-5’-yl)-2-phenoxy]hexanamide]
- IC50 [1]: 4100 ± 300 nM
- inhibition of tubulin polymerization [2]: virtually none
- effect on microtubule cytoskeleton ([3]; 4 µM): did not affect the microtubule cytoskeleton
- cells in G1 (518A2 melanoma cells; 2 µM): 53.9 ± 0.8%
- cells in G2/M (518A2 melanoma cells; 2 µM): 22.2 ± 0.5%
- cells in S (518A2 melanoma cells; 2 µM): 18.3 ± 0.7%
- cells in Sub-G1 (518A2 melanoma cells; 2 µM): 5.6 ± 0.8%
- cells in G1 (518A2 melanoma cells; 3 µM): 54.2 ± 0.5%
- cells in G2/M (518A2 melanoma cells; 3 µM): 22.5 ± 0.3%
- cells in S (518A2 melanoma cells; 3 µM): 16.9 ± 0.6%
- cells in Sub-G1 (518A2 melanoma cells; 3 µM): 6.3 ± 0.9%
- cell cycle arresting effect (518A2 melanoma cells): induced a G1 phase arrest

SMILES: COc1ccc(-c2ocnc2-c2cc(Br)c(OC)c(OC)c2)cc1OCCCCC(=O)NO [4e, N-Hydroxy-5-[1-methoxy-4-(4’-(3’’-bromo-4’’,5’’-dimethoxyphenyl)oxazol-5’-yl)-2-phenoxy]pentanamide]
- IC50 [1]: 2100 ± 400 nM
- inhibition of tubulin polymerization [2]: merely moderate inhibitory effect
- effect on microtubule cytoskeleton ([3]; […]): eroded the highly organized microtubule network, but left some intact clusters
- cells in G1 (518A2 melanoma cells; 0.8 µM): 43.1 ± 1.3%
- cells in G2/M (518A2 melanoma cells; 0.8 µM): 32.6 ± 1.7%
- cells in S (518A2 melanoma cells; 0.8 µM): 19.2 ± 0.7%
- cells in Sub-G1 (518A2 melanoma cells; 0.8 µM): 5.1 ± 1.2%
- cells in G1 (518A2 melanoma cells; 1 µM): 35.4 ± 1.1%
- cells in G2/M (518A2 melanoma cells; 1 µM): 34.9 ± 3.5%
- cells in S (518A2 melanoma cells; 1 µM): 19.0 ± 0.3%
- cells in Sub-G1 (518A2 melanoma cells; 1 µM): 10.8 ± 4.4%
- cell cycle arresting effect (518A2 melanoma cells): accumulation of 518A2 cells in G2/M phase

SMILES: COc1ccc(-c2ocnc2-c2cc(Br)c(OC)c(OC)c2)cc1OCCCC(=O)NO [4d, N-Hydroxy-4-[1-methoxy-4-(4’-(3’’-bromo-4’’,5’’-dimethoxyphenyl)oxazol-5’-yl)-2-phenoxy]butanamide]
- IC50 [1]: 290 ± 20 nM
- inhibition of tubulin polymerization [2]: inhibited the polymerization of pig brain tubulin nearly completely; also recorded: significant inhibition of tubulin polymerization
- effect on microtubule cytoskeleton ([3]; 0.5 µM): complete disruption of the microtubule cytoskeleton
- cells in G1 (518A2 melanoma cells; 0.2 µM): 33.9 ± 3.4%
- cells in G2/M (518A2 melanoma cells; 0.2 µM): 35.4 ± 2.4%
- cells in S (518A2 melanoma cells; 0.2 µM): 16.3 ± 1.1%
- cells in Sub-G1 (518A2 melanoma cells; 0.2 µM): 14.4 ± 2.8%
- cell cycle arresting effect (518A2 melanoma cells): accumulation of 518A2 cells in G2/M phase
